The text below walks through data of US8466089B2, “Pyrazole compounds, process for their production and herbicides containing them” (Ishihara Sangyo Kaisha, Ltd., priority 2008, dated 2013).

Like-named read-outs stand apart in the source and are kept apart here.

Type in all cases: in vivo
Series [1] has as its system corn (Zea mays L.). The experiment in a line: Test Example 4, foliar treatment, safety to crop plants versus Reference Compounds. To be noted: 3.5 to 15 g/ha, 14th to 28th day after application, test written in present tense. From the text:
Upland field soil is put into a 1/1,000,000 hectare pot, and seeds of various plants are sown. When the respective plants reach predetermined leaf stage ((1) velvetleaf (Abutilon theophrasti MEDIC.), (2) guineagrass (Panicum maximum Jacq.), (3) green foxtail (Setaria viridis L.), and (4) corn (Zea mays L.), a wettable powder of compound No. 2-1 of the above-mentioned present invention, an emulsifiable concentrate of the following Reference Compound 1 and a wettable powder of the following Reference Compound 2, prepared in accordance with a conventional preparation method, are weighed so that the active ingredients become the prescribed amounts 3.5 to 15 g/ha, and diluted with water in an amount corresponding to 300 liter per 1 hectare (containing 0.5 vol % of an agricultural spreader (MSO concentrate, manufactured by Cognis Corporation). The spray solutions thus prepared are applied for foliar treatment by a small sprayer.

For series [2], the system named is corn (Zea mays L.). The experiment in a line: Test Example 5, foliar treatment versus Reference Compounds. Conditions: 4.0 to 4.3 leaf stage, 7th day after application, read-out: Growth inhibition rate (%) (7th day after application) Corn. From the text: (§1) Upland field soil was put into a 1/1,000,000 hectare pot, and seeds of various plants were sown. When the respective plants reached predetermined leaf stage ((1) velvetleaf (Abutilon theophrasti MEDIC.): 3.0 to 3.5 leaf stage, (2) giant foxtail (Setaria faberi Herrm.): 4.0 to 4.5 leaf stage, (3) green foxtail (Setaria viridis L.): 5.0 to 5.5 leaf stage, and (4) corn (Zea mays L.): 4.0 to 4.3 leaf stage, a wettable powder of compound No. 2-1 of the above-mentioned present invention, a wettable powder of the above-mentioned Reference Compound 1 and a wettable powder of the above-mentioned Reference Compound 2, prepared in accordance with a conventional preparation method, were weighed so that the active ingredients became the prescribed amounts, and diluted with water in an amount corresponding to 300 liter per 1 hectare (containing 0.5 vol % of an agricultural spreader (Destiny HC: WINFIELD SOLUTIONS by LLC). The spray solutions thus prepared were applied for foliar treatment by a small sprayer.
(§2) On the 7th to 20th day after application, the state of growth of the respective plants was visually observed, and the herbicidal effect was evaluated by a growth inhibition rate (%) of 0 (equivalent to the non-treated area) to 100% (complete kill).

The subject of series [3] is giant foxtail (Setaria faberi Herrm.). The series is described as above. Conditions: 4.0 to 4.5 leaf stage, 20th day after application, read-out: Growth inhibition rate (%) (20th day after application) Giant foxtail.
Source text: as §1, §2

For series [4], the system named is green foxtail (Setaria viridis L.). The series is described as above. To be noted: 5.0 to 5.5 leaf stage, 18th day after application, read-out: Growth inhibition rate (%) (18th day after application) Green foxtail.
Source text: as §1, §2

Series [5] has as its system velvetleaf (Abutilon theophrasti MEDIC.). Described as above. To be noted: 3.0 to 3.5 leaf stage, 20th day after application, read-out: Growth inhibition rate (%) (20th day after application) Velvet leaf.
Source text: as §1, §2

Series [6] concerns sorgo (Sorghum bicolor Moench) (var.: Lucky Sorgo). The experiment in a line: Test Example 6, soil column downward movement, sorgo bioassay. To be noted: 14th day after sowing. The procedure:
Soil (sterilized soil:sand=3:1) was packed (4 L) into a column (9.5 cm in diameter×40 cm in height, application area: 0.007 m^2), and tap water was dropped from above by a Peristaltic pump before application of the herbicide for the purpose of maintaining the soil moisture to be uniform. Then, 10 mL of a spray solution prepared so that each agent (Compound No. 2-1, the above Reference Compounds 1 and 2) would be at a concentration corresponding to 250 g/ha was dropwise applied by a pipette. After application, water was dropped again at a rate of 400 mL/hr for about 3 hours by means of a Peristaltic pump. After the dropping, the column was left to stand for 1 day, and then the column was vertically evenly divided and seeds of sorgo (Sorghum bicolor Moench) (var.: Lucky Sorgo) were sown in a row. On the 14th day after sowing, the state of growth of the plant was visually observed at 3 cm intervals from the application point of the agent, whereby the germination and the degree of growth were evaluated by a growth inhibition rate (%) of 0 (equivalent to the non-treated area) to 100% (complete kill) to obtain the results in Table 17.
From the above results, the growth inhibition rates of Reference Compounds No. 1 and No. 2 are observed in depths deeper than that of Compound No. 2-1. […] Whereas, Compound No. 2-1 stayed at a shallow portion of soil (in a layer of from 0 to 9 cm).

The inhibition is how much of the control response was suppressed. On to `CCn1ncc(C(=O)c2ccc(S(C)(=O)=O)c(OCCOC)c2C)c1OC(C)OC(=O)OC` (stereo not drawn) [Compound No. 2-1, 1-(1-Ethyl-4-(3-(2-methoxyethoxy)-2-methyl-4-(methylsulfonyl)benzoyl)-1H-pyrazol-5-yloxy)ethyl methyl carbonate], for which, in the series with corn (Zea mays L.) [1], the “safety to crop plants as compared to Reference Compounds” value is recorded as “excellent safety to crop plants”. Further, in the series with corn (Zea mays L.) [2], the inhibition at 90 g/ha was 0%. For the same molecule, the inhibition at 3.5 g/ha in series [3] stood at 83%; in series [5], 80%. Also, the inhibition at 7 g/ha in series [4] was determined as 70%. Besides, the inhibition at 250 g/ha in series [6] (depth 0-3 cm, read-out: Growth inhibition rate (%) against sorgo, Depth (cm) from the applied surface 0-3) stood at 70%; in series [6] (depth 3-6 cm, read-out: Growth inhibition rate (%) against sorgo, Depth (cm) from the applied surface 3-6) it was 19%; in series [6] (depth 6-9 cm, read-out: Growth inhibition rate (%) against sorgo, Depth (cm) from the applied surface 6-9) it was 10%; in series [6] (depth 9-12 cm, read-out: Growth inhibition rate (%) against sorgo, Depth (cm) from the applied surface 9-12), 5%; in series [6] (depth 12-15 cm, read-out: Growth inhibition rate (%) against sorgo, Depth (cm) from the applied surface 12-15), 3%; in series [6] (depth 15-18 cm, read-out: Growth inhibition rate (%) against sorgo, Depth (cm) from the applied surface 15-18) it was 3%. For the same molecule, the inhibition at 250 g/ha in series [6] (depth 18-21 cm, read-out: Growth inhibition rate (%) against sorgo, Depth (cm) from the applied surface 18-21) stood at 2%; in series [6] (depth 21-24 cm, read-out: Growth inhibition rate (%) against sorgo, Depth (cm) from the applied surface 21-24) it was 1%; in series [6] (depth 24-27 cm, read-out: Growth inhibition rate (%) against sorgo, Depth (cm) from the applied surface 24-27), 0%; in series [6] (depth 27-30 cm, read-out: Growth inhibition rate (%) against sorgo, Depth (cm) from the applied surface 27-30), 0%.
